# Values quoted from earlier work as cited in publication PMC4460250, “Systems Pharmacology Dissecting Holistic Medicine for Treatment of Complex Diseases: An Example Using Cardiocerebrovascular Diseases Treated by TCM” (Evidence-based Complementary and Alternative Medicine : eCAM, 2015).
# Conditions: human; PreHIA data set, value given as fraction; cited from earlier work
row,Compound,HIA(Human Intestinal Absorption)
1,CC#C[C@]1(O)CC[C@H]2[C@@H]3CCC4=CC(=O)CCC4=C3[C@@H](c3ccc(N(C)C)cc3)C[C@@]21C [Mifepristone],0.9

# Same assay, conditions: in vivo; cited from earlier work
row,Compound,HIA(Human Intestinal Absorption)
1,CC(C)(C(=O)c1cccnc1)c1cccnc1 [Metyrapone],0.8
2,CC(O)(CS(=O)(=O)c1ccc(F)cc1)C(=O)Nc1ccc(C#N)c(C(F)(F)F)c1 (centres unmarked) [Bicalutamide],0.9
3,CC1=C(CC(=O)O)c2cc(F)ccc2/C1=C\c1ccc([S+](C)[O-])cc1 (centres unmarked) [Sulindac],0.9
4,CO/N=C(\C(=O)N[C@@H]1C(=O)N2C(C(=O)O)=CCS[C@H]12)c1csc(N)n1 [Ceftizoxime],0.72
5,N[C@@H](C(=O)N[C@@H]1C(=O)N2C(C(=O)O)=C(CSc3c[nH]nn3)CS[C@H]12)c1ccc(O)cc1 [Cefatrizine],0.76
6,Cc1cn([C@H]2C=C[C@@H](CO)O2)c(=O)[nH]c1=O [Stavudine],1
7,CC1(C)S[C@@H]2[C@H](NC(=O)[C@H](NC(=O)N3CCN(S(C)(=O)=O)C3=O)c3ccccc3)C(=O)N2[C@H]1C(=O)O [Mezlocillin],0.01
8,NC(=O)N1c2ccccc2C=Cc2ccccc21 [Carbamazepine],1
9,C[C@]12C[C@H](O)[C@H]3[C@@H](CCC4=CC(=O)CC[C@@]43C)[C@@H]1CC[C@@H]2C(=O)CO [Corticosterone],1
10,CNS(=O)(=O)Cc1ccc2[nH]cc(CCN(C)C)c2c1 [Sumatriptan],0.57
11,CC[C@H]1OC(=O)[C@H](C)C(=O)[C@H](C)[C@@H](O[C@@H]2O[C@H](C)C[C@H](N(C)C)[C@H]2O)[C@](C)(OC)C[C@@H](C)C(=O)[C@H](C)[C@H]2N(CCCCn3cnc(-c4cccnc4)c3)C(=O)O[C@]12C [Telithromycin],0.9
12,C[C@]12C=CC(=O)C=C1CC[C@H]1[C@@H]3C[C@@H](O)[C@](O)(C(=O)CO)[C@@]3(C)C[C@H](O)[C@@]12F [Triamcinolone],1
13,CCCN1CC(NS(=O)(=O)N(CC)CC)CC2Cc3c(O)cccc3CC21 (centres unmarked) [Quinagolide],1
14,COCCCOc1ccnc(C[S+]([O-])c2nc3ccccc3[nH]2)c1C (centres unmarked) [Rabeprazole],0.9
15,CCOC(=O)[C@H](CCc1ccccc1)N[C@H]1CCCN2CCC[C@@H](C(=O)O)N2C1=O [Cilazapril],0.59
16,CCCC(CCC)C(=O)O [Valproic_acid],0.98
17,Cc1ccc(-c2ncc(Cl)cc2-c2ccc(S(C)(=O)=O)cc2)cn1 [Etoricoxib],1
18,Nc1nc(O)c2ncn(COC(CO)CO)c2n1 [Ganciclovir],0.038
19,CC(C)(Oc1ccc(CCNC(=O)c2ccc(Cl)cc2)cc1)C(=O)O [Bezafibrate],1
20,Cc1cc(CC(=O)O)n(C)c1C(=O)c1ccc(Cl)cc1 [Zomepirac],1
21,CN(C)CCC(c1ccc(Cl)cc1)c1ccccn1 (centres unmarked) [Chlorpheniramine],0.8
22,COc1nc(C)nc(Cl)c1N=C1NCCN1 [Moxonidine],0.88
23,CO[C@@]1(NC(=O)CSCC#N)C(=O)N2C(C(=O)O)=C(CSc3nnnn3C)CS[C@@H]21 [Cefmetazole],0.1
24,NS(=O)(=O)Cc1noc2ccccc12 [Zonisamide],1
25,O=C(O)c1cc(/N=N/c2ccc(O)c(C(=O)O)c2)ccc1O [Olsalazine],0.24

row,Compound,HIA(Human Intestinal Absorption)
1,Cc1noc(NS(=O)(=O)c2ccc(N)cc2)c1C [Sulfisoxazole],0.95
2,Cc1ccsc1C(=CCCN1CCC[C@@H](C(=O)O)C1)c1sccc1C [Tiagabine],0.9
3,NCC[C@H](O)C(=O)N[C@@H]1C[C@H](N)[C@@H](O[C@H]2O[C@H](CN)CC[C@H]2N)[C@H](O)[C@H]1O[C@H]1O[C@H](CO)[C@@H](O)[C@H](N)[C@H]1O [Arbekacin],0.01
4,CNCCCC1c2ccccc2C=Cc2ccccc21 [Protriptyline],0.95
5,CC(=O)Oc1ccccc1C(=O)O [Aspirin],0.82
6,CC(=O)O[C@]1(C(C)=O)CC[C@H]2[C@@H]3C=C(Cl)C4=CC(=O)[C@@H]5C[C@@H]5[C@]4(C)[C@H]3CC[C@@]21C [Cyproterone_acetate],0.98
7,CC[C@H](C)C(=O)O[C@H]1C[C@H](O)C=C2C=C[C@H](C)[C@H](CC[C@@H](O)C[C@@H](O)CC(=O)O)[C@H]21 [Pravastatin],0.34
8,COc1cc([C@@H]2c3cc4c(cc3[C@@H](O[C@@H]3O[C@@H]5CO[C@@H](C)O[C@H]5[C@H](O)[C@H]3O)[C@H]3COC(=O)[C@H]23)OCO4)cc(OC)c1O [Etoposide],0.5
9,CNCCC(Oc1ccc(C(F)(F)F)cc1)c1ccccc1 (centres unmarked) [Fluoxetine],0.8
10,O=P(O)(O)C(Sc1ccc(Cl)cc1)P(=O)(O)O [Tiludronic_acid],0.06
11,Nc1nc(=O)[nH]cc1F [Flucytosine],1
12,CCCC1O[C@@H]2C[C@H]3[C@@H]4CCC5=CC(=O)C=C[C@]5(C)[C@H]4[C@@H](O)C[C@]3(C)[C@]2(C(=O)CO)O1 (some centres unmarked) [Budesonide],1
13,CC(C)C(=O)Nc1ccc([N+](=O)[O-])c(C(F)(F)F)c1 [Flutamide],0.9
14,Nc1nnc(-c2cccc(Cl)c2Cl)c(N)n1 [Lamotrigine],0.98
15,C[C@H]1C[C@@H]2[C@H]([C@@H](O)C[C@@]3(C)[C@H]2CC[C@]3(O)C(=O)CO)[C@@]2(C)C=CC(=O)C=C12 [Methylprednisolone],0.82
16,CNC(=C[N+](=O)[O-])NCCSCc1csc(CN(C)C)n1 [Nizatidine],0.9
17,O=C1C(CC[S+]([O-])c2ccccc2)C(=O)N(c2ccccc2)N1c1ccccc1 (centres unmarked) [Sulfinpyrazone],1
18,[H]/N=C(\N/C(=N/[H])Nc1ccc(Cl)cc1)NC(C)C [Proguanil],0.8
19,CC(=O)Nc1ccc(O)cc1 [Acetaminophen],0.85
20,Cc1ccc(NC(=O)c2ccc(CN3CCN(C)CC3)cc2)cc1Nc1nccc(-c2cccnc2)n1 [Imatinib],0.98
21,CN/C(=N/CCSCc1nc[nH]c1C)NC#N [Cimetidine],0.64
22,OC[C@H]1O[C@@H](O[C@@H]2[C@@H](CO)OC(O)(CO)[C@H]2O)[C@H](O)[C@@H](O)[C@H]1O (mixture of isomers) [Lactulose],0.01
23,C#C[C@]1(O)CC[C@H]2[C@@H]3CCc4cc(O)ccc4[C@H]3CC[C@@]21C [Ethynylestradiol],1
24,CN1CCC(=C2c3ccccc3CCc3sccc32)CC1 [Pizotyline],0.8
25,CC1(C)NC(=O)N(c2ccc([N+](=O)[O-])c(C(F)(F)F)c2)C1=O [Nilutamide],1

row,Compound,HIA(Human Intestinal Absorption)
1,CC1(C)O[C@@H]2C[C@H]3[C@@H]4C[C@H](F)C5=CC(=O)C=C[C@]5(C)[C@H]4[C@@H](O)C[C@]3(C)[C@]2(C(=O)CO)O1 [Flunisolide],0.8
2,CCC#CC[C@H](C)[C@H](O)C#C[C@@H]1[C@H]2C/C(=C/COCC(=O)O)C[C@H]2C[C@H]1O [Cicaprost],1
3,O=C(O)Cc1ccc2c(c1)C(=O)c1ccccc1CO2 [Isoxepac],0.98
4,CC(C)N(CCC(C(N)=O)(c1ccccc1)c1ccccn1)C(C)C (centres unmarked) [Disopyramide],0.95
5,NCCC(O)(P(=O)(O)O)P(=O)(O)O [Pamidronic_acid],0.05
6,CC1=NS(=O)(=O)c2cc(Cl)ccc2N1 [Diazoxide],0.9
7,CC[C@@H](CO)NC(=O)[C@@H]1C=C2c3cccc4[nH]cc(c34)C[C@H]2N(C)C1 [Methylergonovine],1
8,C#C[C@]1(O)CC[C@H]2[C@@H]3CCc4cc(OC)ccc4[C@H]3CC[C@@]21C [Mestranol],0.9
9,CCCCc1nc(Cl)c(CO)n1Cc1ccc(-c2ccccc2-c2nn[nH]n2)cc1 [Losartan],0.8
10,OCCN1CCN(CCC=C2c3ccccc3Sc3ccc(Cl)cc32)CC1 [Clopenthixol],0.95
11,OC[C@@H](O)[C@@H](O)[C@H](O)[C@H](O)CO [Mannitol],0.16
12,COc1cccc2c1C(=O)c1c(O)c3c(c(O)c1C2=O)C[C@@](O)(C(=O)CO)C[C@@H]3O[C@H]1C[C@H](N)[C@H](O)[C@H](C)O1 [Doxorubicin],0.12
13,CN(C)[C@@H]1C(O)=C(C(N)=O)C(=O)[C@@]2(O)C(O)=C3C(=O)c4c(O)cccc4[C@@](C)(O)[C@H]3[C@H](O)[C@@H]12 [Oxytetracycline],0.58
14,CNCCCC12CCC(c3ccccc31)c1ccccc12 [Maprotiline],0.98
15,CC(NCCc1ccc(O)cc1)C(O)c1ccc(O)cc1 (centres unmarked) [Ritodrine],0.95
16,CC/C(=C(/CC)c1ccc(O)cc1)c1ccc(O)cc1 [Diethylstilbestrol],0.9
17,CN1C(C(=O)Nc2ccccn2)=C(O)c2sccc2S1(=O)=O [Tenoxicam],1
18,Cc1ccc(O)c([C@H](CCN(C(C)C)C(C)C)c2ccccc2)c1 [Tolterodine],0.77
19,Nc1ccc(/N=N/c2ccccc2)c(N)n1 [Phenazopyridine],0.9
20,O=c1[nH]c(=O)n([C@@H]2O[C@H](CO)[C@@H](O)[C@@H]2O)cc1/C=C/Br [Sorivudine],0.82
21,c1ccc([C@H]2CN3CCSC3=N2)cc1 [Levamisole],0.95
22,Cc1cnc(C(=O)O)c[n+]1[O-] [Acipimox],0.95
23,COCC(=O)O[C@]1(CCN(C)CCCc2nc3ccccc3[nH]2)CCc2cc(F)ccc2[C@@H]1C(C)C [Mibefradil],0.69
